This is an account of results in patent US20100310574A1, “METHODS AND COMPOSITIONS FOR THE TREATMENT AND DIAGNOSIS OF STATIN-INDUCED MYOPATHY” (Beth Israel Deaconess Medical Center, priority 2007, published 2010).

A short description of series [1]: Clinical data (CK) of statin-treated patients who gave muscle biopsies. To be noted: patient with muscle pain/damage concomitantly treated with the statin; one patient per line. The series is classed as in vivo, human. Here is the method:
The atrogin-1 mRNA levels were measured in 17 human quadriceps muscle biopsies from five patients undergoing knee replacements (controls), from four patients with muscle pain but not being treated with statins, and from eight patients with muscle pain/damage concomitantly being treated with statins (the table below).
Muscle biopsies: Muscle was obtained from three groups of patients whose characteristics are detailed in the above table. The statin-treated group included four subjects with statin-induced myopathy and 4 with statin-induced rhabdomyolysis, as commonly defined (Antons et al., Am. J. Med. 119:400-409, 2006). The non-statin myopathy group included four statin-naïve subjects with undefined myopathy. Both of these groups underwent percutaneous muscle biopsies of the vastus lateralis muscle using a Bergstrom needle. The control group included five statin-naïve subjects who volunteered muscle at the time of knee arthroplasty. Muscle from subjects in all three groups was snap frozen in liquid nitrogen for subsequent analysis. All subjects signed an IRB-approved consent form.

For series [2] the following is noted: before withdrawal in August 2001; cited from earlier work.
In series [3] the test system is atrogin-1 (−/−) myotubes. As to the kind of experiment: Myotube size, atrogin-1 (-/-) primary mouse myotubes. The series is classed as cell-based. To be noted: 0.25 and 1.0 μM. On the procedure:
(§1) Myotube Fiber Size: Size was quantified by measuring a total of 200 tube diameters as described by Sandri et al. (supra). Briefly, muscle fiber size from four random fields at 100 magnification was measured using IMAGE software (Scion, Frederick, Md.). All data were expressed in Mean±S.E.M. Comparisons were made by using the Student's T-test, with p<0.05 being considered statistically significant.
Cell Culture: Primary mouse myoblasts from atrogin-1 null mice (Regeneron, Tarrytown N.Y.) were isolated as follows: muscle was removed from the hind limbs of two-week old mice. After treatment with 0.1% collagenase D and Dispase II (Roche, Indianapolis, Ind.), the isolated cells were plated on collagen (Type I, Roche, Indianapolis, Ind.)-coated dishes. Myoblasts were subsequently enriched and cultured in F-10 nutrient medium with 20% fetal calf serum and 2.5 ng/ml bFGF (Invitrogen, Grand Island, N.Y.). Myotubes were induced in differentiation medium. All media contained 1× Primocin (InvivoGen, San Diego, Calif.). The cultures were maintained at 37° C., under 5% and 8% CO2 humidified air atmosphere for myoblasts and myotubes, respectively. Cultures were ready to use in assays on day 2 in differentiation medium when the myotubes had formed and were contracting.

The subject of series [4] is atrogin-1 protein. Kind of series: Atrogin-1 protein in C2C12 myotubes by Western blotting. The series is classed as cell-based, mouse. To be noted: vs non-treated control cells.
Series [5] relates to Zebrafish embryos. Kind of series: Zebrafish embryo muscle fiber damage (myosin heavy chain staining). The series is classed as in vivo, Danio rerio. On the procedure:
Zebrafish embryos were treated with lovastatin from 20 hpf to 32 hpf at different concentrations (0-5 μM).
(§2) Zebrafish lines and maintenance: Adult zebrafish (Danio rerio) were maintained as described under standard laboratory conditions at 28.5° C. in a 14 h light/10 h dark cycle (Westerfield, “The zebrafish book: a guide for the laboratory use of zebrafish Danio (Brachydanio) rerio,” Institute of Neuroscience, University of Oregon, Eugene, Oreg., 1993). Developmental stages were determined by embryo morphology and hours post fertilization (hpf) (Kimmel et al., Dev. Dyn. 203:253-310, 1995). To examine the effects of statin, the embryos at 20-24 hpf were immersed in the embryonic water ([…], 170 μM KCl, 330 μM CaCl2, and 330 μM MgSO4) at a concentration of 0.005-10 μM lovastatin (Mevinolin; Sigma, St. Louis, Mo.) including 0.003% 1-phenyl-2-thiourea (Sigma) to inhibit pigmentation in 24 well plate. After 32 hpf, the embryos were fixed by 4% paraformaldehyde in PBS.
Antibody staining: Whole zebrafish staining: Zebrafish embryos were fixed by 4% paraformaldehyde in PBS overnight. After fixation, the embryos were washed by PBS, stored for at least 1 h at −20° C. in methanol, and permeabilized for 30 min at −20° C. in acetone. Embryos were incubated with blocking buffer (1% BSA, 0.1% Tween-20 in PBS), and incubated with diluted primary antibody, anti-slow twitch myosin F59 (1: 200; Developmental Studies Hybridoma Bank (DSHB), Department of Biological Sciences, University of Iowa, Iowa City, Iowa 52242) (Crow and Stockdale, Dev. Biol. 118:333-342, 1986; and Devoto et al., Development 122:3371-3380, 1996) in blocking solution for overnight at 4° C. Staining was detected by using goat anti-mouse TRITC secondary antibody (1:200; Southern Biotechnology Associates, Inc.) in blocking solution for 4 h at RT (Birely et al., Dev. Biol. 280:162-176, 2005). Cross-sectional staining: Embryos were fixed overnight in 4% paraformaldehyde (PFA) and cryoprotected by the overnight incubation with increasing concentrations of sucrose (up to 30%). Samples were embedded in OCT compound and then equilibrated to −80° C. Sections (10 μm thick) were collected on SuperFrost/Plus slides and dried. Sections were rehydrated in PBS and blocked for 1 h in blocking buffer (1% BSA, 0.1% Tween in PBS). Sections were incubated overnight at 4° C. with primary antibody diluted in blocking buffer. Sections were stained with antibody as above.

Series [6] relates to atrogin-1 wildtype primary myotubes. As to the kind of experiment: Myotube size, wildtype primary mouse myotubes. The series is classed as cell-based. To be noted: control (wildtype) cultures, two days of exposure.
The test system of series [7] is atrogin-1 promoter. Kind of series: Atrogin-1 promoter luciferase reporter in zebrafish embryos. To be noted: 0.5 μM. The series is classed as in vivo, Danio rerio. On the procedure:
(§3) The effect of lovastatin on FoxO-dependent activation of the atrogin-1 promoter in zebrafish embryos was also examined. Embryos were injected with a proximal fragment of the atrogin-1 promoter linked to luciferase or the same fragment with the FoxO site mutated (Sandri et al., Cell 117:399-412, 2004). Lovastatin (0.5 μM) stimulated the reporter luciferase activity more than 7-fold, while stimulating the FoxO-less reporter only 3-fold (FIG. 14B). […] Since lovastatin treatment still lead to a small amount of luciferase activity even in the absence of FoxO binding sites in the atrogin-1 promoter-reporter, additional signaling pathways may also be important in mediating the effects of statins on atrogin-1 expression in muscle.

The subject of series [8] is differentiated C2C12 mouse myocytes. Kind of series: C2C12 myotube morphology and diameter. The series is classed as cell-based.
Source text: The effect of statins on muscle cells was studied by treating differentiated C2C12 mouse myocytes with various concentrations of lovastatin. […] The reduction of myotube size was quantitated by measurement of myotube thickness. This effect was clearly visible at low lovastatin concentrations, in the range of those typically found in patients administered with this medication (Pan et al., J. Clin. Pharmacol. 30:797-801, 2002, and Hostein et al., Cancer Chemother. Pharmacol. 57:155-164, 2006).
Cell Culture: Mouse myoblast cell line C2C12 was purchased from ATCC (ATCC, Manassas, Va.) and maintained in DMEM (Mediatech, Herndon, Va.) containing 10% fetal bovine serum (Hyclone, Logan, Utah) and penicillin (100U) and streptomycin (50 ug/ml; Invitrogen, Grand Island, N.Y.). When C2C12 cells reach to 90% confluence, medium was replaced with differentiation medium of DMEM supplemented with 2% horse serum (ATCC, Manassas, Va.) to induce myotube formation. Cells were used for experiments in 4-5 days after differentiation. Lovastatin (>98% purity) (mevinolin; Sigma, St. Louis, Mo.) was prepared as a 50 mM stock solution in DMSO as reagent vehicle, further diluted in DMSO, and added into the medium. The final volume DMSO in medium is not more than 0.125%, which there is not obvious cytotoxicity. Equal volume of reagent vehicle was used for all experiments and reagent vehicle only serviced as controls. Each experiment was performed at least three times.
as §1

Series [9] concerns functional mitochondria. As to the kind of experiment: MitoTracker staining and FACS of cells from zebrafish embryos. To be noted: lovastatin 0.5 or 1.0 μM. The series is classed as in vivo, Danio rerio. Here is the method:
Mitochondrial staining and FACS analysis: Embryos were treated with lovastatin (0, 0.5, 1.0 μM at 20-32 hpf) or treated with the combination of lovastatin (0.5 μM) following PGC-1α (or vehicle) cDNA injection (100 pg/embryo at the one-cell stage). 1-Phenyl-2-thiourea (0.003%; Sigma) was added at 20 hpf. After phenotypes were observed, 100 embryos from each condition were decholionated by protease and homogenized for 3-5 minutes in 0.9× phosphate buffered saline (PBS)/10% fetal bovine serum (FBS), then centrifuged at 3000 rpm for 5 minutes, digested with trypsin/EDTA and dispersed at room temperature. After adding 1 mL of 0.9×PBS/10% FBS, the dispersed cells were filtered ([…]) and washed twice with 0.9×PBS/10% FBS. The cells were incubated in 100 nM MitoTracker Red CMXRos (Invitrogen) in 0.9×PBS/10% FBS for 15 minutes in the dark. The cells were washed twice in 0.9×PBS/10% FBS and subjected to […] (FACS) analysis. EPICS XL (Beckman Coulter) was used for the fluorescence detection (absorption wavelength: 578 nm; emission wavelength: 599 nm) and data was analyzed with Expo32ADC software. Ten thousand cells were counted for each treatment condition.

Series [10] deals with atrogin-1 mRNA. As to the kind of experiment: Atrogin-1 mRNA in C2C12 myocytes by real time PCR. To be noted: 10 μM. The series is classed as cell-based, mouse.
Description: Quantitative PCR: Atrogin-1 mRNA levels were determined by real-time PCR using the Applied Biosystems® 7500 real-time PCR analyzer according to the method recently described by others (Okuno et al., Blood 100:4420-4426, 2002, and Yang et al., J. Cell Biochem. 94:1058-1067, 2005). Multiplexed amplification reactions were performed using 18S rRNA as an endogenous control (18S rRNA primers/VIC-labeled probe Applied Biosystems #4310893E) using the TaqMan One Step PCR Master Mix reagents Kit (#4309169, Applied Biosystems). The following settings were used: Stage 1 (reverse transcription): 48° C. for 30 min; Stage 2 (denaturation): 95° C. for 10 min; and Stage 3 (PCR): 95° C. for 15 sec and 60° C. for 60 sec for 40 cycles. […] Fluorescence data were analyzed by SDS1.7 software (Applied Biosykems). […] All RNA samples were analyzed in triplicate, with the mean value used in subsequent analyses.
Cell Culture: Mouse myoblast cell line C2C12 was purchased from ATCC (ATCC, Manassas, Va.) and maintained in DMEM (Mediatech, Herndon, Va.) containing 10% fetal bovine serum (Hyclone, Logan, Utah) and penicillin (100U) and streptomycin (50 ug/ml; Invitrogen, Grand Island, N.Y.). […]
Quantitative PCR: Performed as described above.
Series [11] relates to phosphor-Akt, phosphor-FoxO3, and phosphor-p70S6K. Kind of series: Phosphorylated Akt/FoxO3/p70S6K in C2C12 myotubes (immunoblot). To be noted: 1, 2.5 or 5 μM, 24 hours. The series is classed as cell-based, mouse. On the procedure:
Western Blotting Cultured cells after treatment were collected at specific times and solubilized in RIPA lysis buffer (50 mM Tris-HCl, pH 7.4; 150 mM NaCl, 1% NP-40, 0.5% sodium deoxycholate, 0.1% SDS (Boston Bioproducts, Boston Mass.), protease (Roche) and phosphatase (Sigma) inhibitor cocktail). Proteins were separated by SDS-PAGE, transferred to PVDF membranes and visualized by Western blotting using alkaline phosphatase-based CDP-star chemiluminescent detection according to manufacturer's protocol (Applied Biosystems, Bedford, Mass.).
as §3

Series [12] deals with zebrafish atrogin-1. Kind of series: Atrogin-1 mRNA and protein expression in zebrafish embryos. The series is classed as in vivo, Danio rerio. To be noted: lovastatin treatment. Here is the method:
as §2
Western blotting: Zebrafish embryos were homogenized in SDS sample buffer (30 embryos/30 μl of sample buffer) with microfuge pestle until the lysate became uniform in consistency and there was no longer stringy inside. The lysate was boiled for 5 minutes and centrifuged supernatant was processed for Western blotting (Hanai et al., J. Cell Biol. 158:529-539, 2002).

The test system of series [13] is C2C12 myotubes. Kind of series: Proteolytic rate in C2C12 myotubes (3H-tyrosine release). The series is classed as cell-based, mouse. To be noted: compared with control cultures.
Description: Measurement of Proteolytic Rate: Differentiated C2C12 myotubes were incubated with ^3H-tyrosine (5 μCi/mL media) for 20 hours to label cell proteins, and switched to medium containing 2 mM unlabeled tyrosine, vehicle, lovastatin, or dexamethasone for another 20 hours. After media replacement, an aliquot of medium was collected once per hour for 4 hours. The collected media was treated with TCA (10% w/v final concentration) to precipitate protein. Since the high concentration of unlabeled tyrosine in the media prevents re-incorporation of ^3H-tyrosine into new protein, the radioactivity in the supernatant represent degraded protein from the pool of prelabeled, intracellular, long-lived proteins. Proteolytic rate was defined as the percentage of released radioactivity per hour calculated from the period of 20 hours to 24 hours of lovastatin or dexamethasone treatment, when ^3H-tyrosine release is linear over time. These rates were compared with proteolytic rates in parallel cultures treated with vehicle alone. All measurements were done in triplicate and then independently repeated at least twice.

The structures appear in SMILES notation. “Also recorded” adds a separate entry of the source. Where only a bound is given, the exact number is not on record here.

`CC(C)c1c(C(=O)Nc2ccccc2)c(-c2ccccc2)c(-c2ccc(F)cc2)n1CC[C@@H](O)C[C@@H](O)CC(=O)O` [atorvastatin]: the “CK (clinical data)” value in [1] was “Muscle pain and weakness, CK 47; also recorded: Muscle pain and weakness, CK 73”.

As for `COCc1c(C(C)C)nc(C(C)C)c(/C=C/[C@@H](O)C[C@@H](O)CC(=O)O)c1-c1ccc(F)cc1` [cerivastatin], the rhabdomyolysis-related deaths entry in series [2] is “approximately 100”.

Turning to `CC[C@H](C)C(=O)O[C@H]1C[C@@H](C)C=C2C=C[C@H](C)[C@H](CC[C@@H]3C[C@@H](O)CC(=O)O3)[C@H]21` [lovastatin], in series [3], the “change in myotube size” value was “Little change in myotube size”. Also, the “atrogin-1 induction (protein)” value in series [4] (1.0 μM, 48 hours) was “about 1.5 fold”. Further, the “atrogin-1 induction (protein)” value in series [4] (10 μM) was “about 2.5 fold”. The muscle phenotype result in [5] (0-5 μM, 20 hpf to 32 hpf) is “clear dose-dependent muscle phenotypes”. In [5] (0.05 μM), the “embryos with class 1 defects” value is on record as “more than 50%”. Further, the “embryos with class 3 changes” value in [5] (5 μM) is on record as “over 60%”. In series [5] (20 hpf to 32 hpf), the “concentration giving class 1 changes (bowing, gap formation, fiber disruption)” value lay within 25 to 50 nM; the “concentration giving class 2 changes (fiber thinning, attenuated MHC staining)” value lay in the range of 50 to 500 nM; the “concentration giving class 3 changes (irregular somite boundaries)” value was 1000 to 5000 nM. In addition, the “decrease of tube diameter” value in [6] was not above 50%. Further, the “stimulation of reporter luciferase activity” value in series [7] (FoxO-less (FoxO site mutated) reporter) was 3 fold. Also, the “stimulation of reporter luciferase activity” value in series [7] (atrogin-1 promoter fragment with FoxO site) was “more than 7 fold”. Moreover, in [8] (by 5 days), the loss of myotubes result is “almost complete loss of myotubes”. Also, in series [8] (increasing concentrations (0-10 μM) vs vehicle), the “myotube morphology / thickness” value is “myotubes became progressively thinner”. Besides, in series [8] (myotube cultures), the “treatment time after which morphological changes were visible” value is on record as 24 hours. In addition, in [9], the MitoTracker fluorescence intensity result is given as “shifted to the left”. In addition, the “atrogin-1 mRNA” value in series [10] (6 hours) was “significantly increased”. In addition, the “atrogin-1 mRNA induction” value in series [10] (36 hours) is not above 6 fold. Further, the phosphorylated signaling intermediates entry in series [11] was “dose-dependent reduction”. Moreover, the “zebrafish atrogin-1 mRNA and protein level” value in series [12] is “clearly and dose-dependently elevated”. Also, in [13], the “increase in the rate of bulk muscle proteolysis” value is recorded as 5-10%. In addition, in series [1], the “CK (clinical data)” value is on record as “Weakness, CK 932”.

For the compound `CCC(C)(C)C(=O)O[C@H]1C[C@@H](C)C=C2C=C[C@H](C)[C@H](CC[C@@H]3C[C@@H](O)CC(=O)O3)[C@H]21` [simvastatin], in [1], the “CK (clinical data)” value was “Weakness, CK 51,080; also recorded: Weakness, CK 8,264; also recorded: Weakness, CK 39,000; also recorded: Muscle pain and weakness, CK 62; also recorded: Muscle pain and weakness, CK 649”.
